What is called IC50 is the concentration that gives 50% inhibition.

This note sets out measurements from EP0696280B1, “SUBSTITUTED PYRROLIDIN-3-YL-ALKYL-PIPERIDINES USEFUL AS TACHYKININ ANTAGONISTS” (MERRELL PHARMACEUTICALS INC., priority 1993, dated 1994).

Test [1] has as its target T1, NK1 receptor (Cavia porcellus, UniProt P30547).
T1 construct: Tissues or cells were homogenized with a Polytron in 15 volumes of 50 mM Tris-HCl buffer; tissue Keystone Biologicals, Cleveland, OH; host or cells: guinea pig lung membranes
As to the kind of experiment: Antagonism of iodinated tachykinin binding to NK1 receptor (125I-Bolton Hunter Lys-3 labeled substance P, guinea pig lung membranes). As for the experimental part:
(§1) The NK1 receptor affinity of proposed tachykinin antagonists was devaluated in guinea pig lungs (Keystone Biologicals, Cleveland, OH), affinity for the NK2 receptor evaluated in HSKR-1 cells (which are mouse 3T3 fibroblasts expressing the human jejunal NK2 receptor) and NK-3 receptor affinity was evaluated in freshly collected guinea pig cerebral cortex. Tissues or cells were homogenized with a Polytron in 15 volumes of 50 mM Tris-HCl buffer (pH 7.4, 4°C) and centrifuged. The pellet was resuspended in Tris-HCl buffer and was centrifuged; the pellet was washed twice by resuspension. The final pellet was resuspended at a concentration of 40 mg/ml for tissues (guinea pig lung and cerebral cortex) and 20 mg/ml for cells in incubation buffer and remained at room temperature for at least 15 min prior to use. Receptor binding was initiated by addition of 250 µl membrane preparation in duplicate to 0.1 nM of the following radioligands: ^125I-Bolton Hunter Lys-3 labeled substance P; ^125iodohistidyl-1-neurokinin A; and ^125I-Bolton Hunter labeled Lys-4 eledoisin in a final volume of 500 µl of buffer containing 50 mM Tris-HCl (pH 7.4 at room temperature), 0.1% bovine serum albumin, 2 mM MnCl2, 40 µg/ml bacitracin, 4 µg/ml leupeptin and chymostatin, 1 µM thiorphan and various doses of the putative tachykinin antagonists. Incubations were performed at room temperature for 90 min (NK1 receptor assays) or 2 hr (NK2 and NK3 receptor assays); binding was terminated by addition of 50 mM Tris-HCl buffer (pH 7.4, 4°C) and filtration under vacuum through GF/B filters presoaked with 0.1% polyethyleneimine (NK1 receptor assays) or 0.5% bovine serum albumin (NK2 and NK3 receptor assays). Filter bound radioactivity was quantitated in a gamma counter. Nonspecific binding was defined as binding in the presence of 1 µM substance P, neurokinin A, or eledoisin. Specific binding was calculated by subtracting nonspecific binding from total binding. Competition of iodinated SP, NKA, or eledoisin binding by test compounds or standards was expressed as a percentage of this maximum competition. IC50 values (concentration required to inhibit 50% of receptor binding) were generated for each of the test compounds by nonlinear regression using an iterative curve fitting program (GraphPAD Inplot, San Diego, CA).

The target in test [2] is T2, NK1 receptor (Homo sapiens, UniProt P25103).
T2 construct: endogenous in cells; host or cells: UC11 cells
T2 sequence (P25103 whole entry): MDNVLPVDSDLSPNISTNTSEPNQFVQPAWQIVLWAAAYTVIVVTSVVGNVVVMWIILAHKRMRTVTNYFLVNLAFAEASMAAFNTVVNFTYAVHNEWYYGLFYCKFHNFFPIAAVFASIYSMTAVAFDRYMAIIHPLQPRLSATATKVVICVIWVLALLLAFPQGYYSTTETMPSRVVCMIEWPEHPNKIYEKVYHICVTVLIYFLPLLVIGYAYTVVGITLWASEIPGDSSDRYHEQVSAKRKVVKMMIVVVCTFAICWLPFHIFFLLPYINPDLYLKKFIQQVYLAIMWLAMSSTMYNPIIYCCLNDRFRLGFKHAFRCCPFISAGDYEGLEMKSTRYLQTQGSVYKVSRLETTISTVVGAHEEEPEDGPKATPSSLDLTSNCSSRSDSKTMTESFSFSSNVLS
As to the kind of experiment: Antagonism of NK1 receptor mediated (SP-induced) phosphatidylinositol turnover in UC11 cells. It counts as cell-based. Here is the method:
Tachykinin-mediated inositol phosphate accumulation was measured in UCll or SKLKB82#3 cells in the presence and absence of NK1 or NK2 receptor antagonists, respectively. Tissues were incubated in Krebs-Henseleit buffer at 37°C with 95% O2-5% CO2 gassing. Tissues were then incubated with fresh buffer containing 100 µCi of myo-[2-^3H(N)] inositol at 37°C for 60 min with gentle gassing. After washing twice at room temperature in 5 ml buffer containing 10 mM LiCl, tissues were incubated for 30 min at room temperature with a buffer change at 15 min. Buffer was removed and Krebs-Henseleit buffer (containing 40 µg/ml bacitracin, 4 µg/ml each of leupeptin and chymostatin, 0.1% bovine serum albumin and 10 mM each of thiorphan and LiCl) added. After 15 min, SP was added to UCll cells or NKA to SKLKB82#3 cells at various concentrations to start the reaction. After incubation for 60 min at room temperature the reaction was terminated by addition of 930 µl chloroform: methanol (1:2 by volume) to each tube, followed by 310 µl chloroform and 310 µl doubly distilled water. Samples were vortexed, centrifuged, and 0.9 ml of the aqueous (top) phase removed and added to 2 ml ddH2O. The mixture was vortexed and loaded onto a 50% Bio-Rad AG 1-X8 (formate form, 100-200 mesh) exchange column (Bio-Rad Laboratories, Hercules, CA). The columns were washed, in order, with: 1) 10 ml doubly distilled water, 2) 5 ml of 5 mM disodium tetraborate/60 mM sodium formate, and 3) 5 ml of 1 M ammonium formate/0.1 M formic acid. The third elution was collected and 1 ml counted in 7 ml scintillation fluid. A 50 µl aliquot of the organic (bottom) phase was removed, dried in a scintillation vial and counted in 7 ml scintillation fluid.
The ratio of DPM in the aqueous phase aliquot (total inositol phosphates) to the DPM in the 50 µl organic phase aliquot (total [^3H]inositol incorporated) was calculated for each sample. Data are expressed as a percent of agonist-induced accumulation of [^3H]-inositol phosphates over basal levels. The ratios in the presence of test compound and/or standards were compared to the ratios for control samples (i.e. no stimulating agonist). Dose-response graphs were constructed and the abilities of the test compounds to inhibit tachykinin-induced phosphatidylinositol turnover determined with the aid of a computer program. […] Data is expressed as percent stimulation of total inositol phosphate accumulation over basal levels and normalized to the maximum response produced by SP. […] Schild analysis is performed using dose response curves (such as those presented in Figures 1a and 1b) to obtain a value indicative of the strength of a competitive antagonist and is expressed as the pA2, which is the negative logarithm of the molar concentration of antagonist which reduces the effect of a dose of agonist to one-half of that expected at the dose of agonist. […]
Values are mean (95% confidence limits) derived from Schild analysis of 2-3 experiments per compound per receptor.

The target in test [3] is T3, human jejunal NK2 receptor (Homo sapiens, UniProt P21452).
T3 construct: expressed in transfected cells; host or cells: HSKR-1 cells (mouse 3T3 fibroblasts)
T3 sequence (P21452 1-398): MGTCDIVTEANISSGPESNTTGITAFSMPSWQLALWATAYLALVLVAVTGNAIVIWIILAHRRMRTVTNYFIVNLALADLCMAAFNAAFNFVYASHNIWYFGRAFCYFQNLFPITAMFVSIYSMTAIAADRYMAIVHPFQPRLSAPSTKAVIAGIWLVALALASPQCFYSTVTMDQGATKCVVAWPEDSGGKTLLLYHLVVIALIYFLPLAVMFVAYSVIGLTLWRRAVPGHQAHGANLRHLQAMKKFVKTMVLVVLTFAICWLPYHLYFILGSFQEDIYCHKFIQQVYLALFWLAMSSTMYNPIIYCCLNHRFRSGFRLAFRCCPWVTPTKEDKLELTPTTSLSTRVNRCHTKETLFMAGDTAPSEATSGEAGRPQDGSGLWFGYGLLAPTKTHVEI
As to the kind of experiment: Antagonism of iodinated tachykinin binding to NK2 receptor (125iodohistidyl-1-neurokinin A, HSKR-1 cell membranes). As for the experimental part: as §1

[4] abbreviates: Schild analysis, SP in UC11 cells, mean (95% confidence limits), 2-3 experiments.

Each structure is given as a SMILES string. Structures can show the parent of a compound that is named as a salt. Where two headings read alike, the source gives them in different places.

T1 sequence (P30547 whole entry): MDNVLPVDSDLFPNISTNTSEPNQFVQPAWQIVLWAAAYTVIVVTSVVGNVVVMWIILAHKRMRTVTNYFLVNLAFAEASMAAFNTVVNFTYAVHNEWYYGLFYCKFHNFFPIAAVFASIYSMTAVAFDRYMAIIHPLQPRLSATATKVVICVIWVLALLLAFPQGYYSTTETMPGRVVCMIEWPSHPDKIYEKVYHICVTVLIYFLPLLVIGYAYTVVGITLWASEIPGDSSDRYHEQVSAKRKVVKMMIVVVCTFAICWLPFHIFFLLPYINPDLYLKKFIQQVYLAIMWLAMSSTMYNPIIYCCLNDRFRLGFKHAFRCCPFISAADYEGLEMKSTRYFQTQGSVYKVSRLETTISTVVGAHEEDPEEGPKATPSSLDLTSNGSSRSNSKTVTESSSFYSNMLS

Take `COc1cccc(OC)c1C(=O)N1CCC(CCN2CCC(C(N)=O)(c3ccccc3)CC2)(c2ccc(Cl)c(Cl)c2)C1` (racemic) [Example 5A, 1-[2-[3-(3,4-dichloro-phenyl-3-yl)-1-(2,6-dimethoxy-benzoyl)-pyrrolidin-3-yl]-ethyl]-4-phenyl-piperidine-4-carboxylic acid amide hydrochloride]: the 50% inhibitory concentration (IC50) stood at 20 nM at NK1 receptor [1] and 40 nM in test [3] (HSKR-1 cells (mouse 3T3 fibroblasts expressing human jejunal NK2 receptor), mean of several experiments, read-out: NK-2 IC50). On NK1 receptor [2], this compound showed a Kb of 47.9 nM. For the same compound, the “NK-1 RECEPTOR -SLOPE” value on NK1 receptor [2] (setting [4]) is reported as 1.17 (0.41-1.93).
In the case of `COc1cc(C(=O)N2CCC(CCN3CCC(C(N)=O)(c4ccccc4)CC3)(c3ccc(Cl)c(Cl)c3)C2)cc(OC)c1OC` (racemic) [Example 3A, 1-[2-[3-(3,4-dichloro-phenyl-3-yl)-1-(3,4,5-trimethoxy-benzoyl)-pyrrolidin-3-yl]-ethyl] -4-phenyl-piperidine-4-carboxylic acid amide hydrochloride], the concentration for half-maximal inhibition (IC50) was 5.97 nM on NK1 receptor [1] and 21 nM in test [3]. Besides, the “NK-1 RECEPTOR -SLOPE” value on NK1 receptor [2] (setting [4]) is recorded as 0.90 (0.65-1.15). For the same compound, the Kb at NK1 receptor [2] (Schild analysis, SP in UC11 cells, mean (95% confidence limits), 2-3 experiments, read-out: NK-1 RECEPTOR pA2 (converted)) was 12.3 nM.
For the compound `COc1cc(C(=O)N2CCC(CCN3CCC(C(N)=O)(c4ccccc4)CC3)(c3ccc(Cl)c(Cl)c3)C2)cc(OC)c1OC` (stereo not shown) [Example 3, 1-[2-[3-(3,4-dichloro-phenyl)-1-(3,4,5-trimethoxy-benzoyl)-pyrrolidin-3-yl]-ethyl]-4-phenyl-piperidine-4-carboxylic acid amide], the figures for the IC50 (on NK1 receptor [1]; in test [3]) were 5 nM and 15 nM, respectively. For the same compound, the “affinity for NK1 receptors” value on NK1 receptor [1] (result in words) is given as “high affinity”. Further, at NK1 receptor [2] (UC11 cells, Figure 1a, result in words), the “antagonism of the receptor mediated SP induced PI turnover” value is recorded as “dose related antagonism”. In addition, in test [3] (result in words), the “affinity for NK2 receptors” value is listed as “high affinity”.
